Laboratory results reported in ChEMBL document CHEMBL2146468, “Thrombin inhibitors from the freshwater cyanobacterium Anabaena compacta” (J Nat Prod, 2012).

Tests used:
Plasminogen = Plasminogen (Homo sapiens, UniProt P00747); assay: Inhibition of plasmin
Prothrombin [1] = molecular target: Prothrombin (Homo sapiens, UniProt P00734); assay: Inhibition of thrombin
Prothrombin [2] = molecular target: Prothrombin (Bos taurus, UniProt P00735); assay: Inhibition of bovine thrombin using Bz-Phe-Val-Arg-pNA as substrate incubated for 5 mins prior to substrate addition measured after 30 mins by spectrophotometric analysis
Cathepsin B = Cathepsin B (Homo sapiens, UniProt P07858); assay: Inhibition of cathepsin B using Z-Phe-Arg-MCA as substrate incubated for 10 mins prior to substrate addition measured after 30 mins by fluorimetric analysis
[3] = Inhibition of trypsin
[4] = Selectivity ratio of EC50 for bovine thrombin to EC50 for cathepsin B

Chain of Plasminogen (P00747 97-580 limits assumed): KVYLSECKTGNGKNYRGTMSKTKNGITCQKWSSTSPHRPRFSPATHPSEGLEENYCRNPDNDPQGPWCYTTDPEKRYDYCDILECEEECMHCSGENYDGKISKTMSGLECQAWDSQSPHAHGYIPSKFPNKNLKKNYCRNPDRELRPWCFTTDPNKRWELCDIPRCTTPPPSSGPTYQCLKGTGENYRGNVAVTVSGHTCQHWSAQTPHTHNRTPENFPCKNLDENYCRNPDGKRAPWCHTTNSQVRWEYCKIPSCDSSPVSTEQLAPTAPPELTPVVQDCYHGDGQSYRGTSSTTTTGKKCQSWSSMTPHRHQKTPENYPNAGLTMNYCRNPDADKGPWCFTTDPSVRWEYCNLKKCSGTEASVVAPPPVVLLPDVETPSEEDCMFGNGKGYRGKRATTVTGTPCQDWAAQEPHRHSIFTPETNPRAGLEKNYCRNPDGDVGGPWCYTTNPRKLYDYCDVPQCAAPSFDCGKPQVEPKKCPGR
Chain of Plasminogen (P00747 581-810 limits assumed): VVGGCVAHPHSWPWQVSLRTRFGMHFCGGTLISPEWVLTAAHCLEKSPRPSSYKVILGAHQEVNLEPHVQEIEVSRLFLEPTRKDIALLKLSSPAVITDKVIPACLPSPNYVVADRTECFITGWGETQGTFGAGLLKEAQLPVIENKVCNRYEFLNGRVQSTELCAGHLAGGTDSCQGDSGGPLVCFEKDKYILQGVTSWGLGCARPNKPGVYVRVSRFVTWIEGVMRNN

| EC50 (Plasminogen) | EC50 (Prothrombin [1]) | EC50 (Prothrombin [2]) | EC50 (Cathepsin B) | EC50 [3] | Ratio EC50 [4] | Compound |
| --- | --- | --- | --- | --- | --- | --- |
| 4.9 µM | 7.5 µM | 2.1 µM | 0.2 µM |  |  | C[C@H]1C[C@@H](C(=O)N[C@H](CO)CCCN=C(N)N)N(C(=O)[C@@H](CCc2ccc(O)cc2)NC(=O)[C@H](O)Cc2ccc(O)cc2)C1 [SPUMIGIN A] |
|  |  |  |  | 26.3 µM | 10 | C[C@H]1C[C@@H](C(=O)N[C@H](CO)CCCNC(=N)N)N(C(=O)[C@@H](CCc2ccc(O)cc2)NC(=O)[C@H](O)Cc2ccc(O)cc2)C1 [SPUMIGIN A] |
|  |  |  |  | 33.1 µM |  | C[C@H]1C[C@@H](C(=O)N[C@@H](CCCNC(=N)N)C(=O)O)N(C(=O)[C@@H](CCc2ccc(O)cc2)NC(=O)[C@H](O)Cc2ccc(O)cc2)C1 [SPUMIGIN B1] |
|  |  | 4.9 µM | 0.7 µM |  | 7 | C[C@H]1C[C@@H](C(=O)N(C)[C@H](CCCCN)C(=O)O)N(C(=O)[C@@H](CCc2ccc(O)cc2)NC(=O)[C@H](O)Cc2ccc(O)cc2)C1 [SPUMIGIN J] |
|  |  |  |  | 0.3 µM |  | C[C@H]1C[C@@H](C(=O)NC(C=O)CCCNC(=N)N)N(C(=O)[C@@H](CCc2ccc(O)cc2)NC(=O)[C@H](O)Cc2ccc(O)cc2)C1 (stereo partly specified) [SPUMIGIN E] |
